Active and inactive are the calls of the source. No cut-off for these calls is given here.
How the values were obtained:
[1] = test system: HCT-116; assay: Antiproliferative activity against MTAP deleted human HCT-116 cells assessed as inhibition of cell viability by luminescence based cell titer-glo assay; format: functional
[2] = Selectivity ratio of IC50 for antiproliferative activity against MTAP wild type human HCT-116 cells to IC50 for antiproliferative activity against MTAP deleted human HCT-116 cells; format: functional
[3] = Oral bioavailability in male CD-1 mouse at 5 mg/kg or 1 mg/kg, iv measured upto 24 hrs; format: ADME, organism-based; settings: in vivo
[4] = Cmax in male Beagle dog at 3 mg/kg, po or 1 mg/kg, iv measured upto 24 hrs; format: ADME, organism-based, Canis lupus familiaris; settings: in vivo
[5] = Toxicity in female BALB/c nude mouse assessed as drug tolerance at 25 to 200 mg/kg, po administered once daily for 21 days; format: organism-based; settings: in vivo, 504 h, dose 25-200 mg/kg, time 21 day
[6] = molecular target: T1, Protein arginine N-methyltransferase 5 (Homo sapiens, UniProt O14744); assay: In vivo inhibition of PRMT5 in female BALB/c nude mouse xenografted with human Lu-99 cell line assessed as inhibition of SDMA level at 100 mg/kg administered once daily via oral gavage by Western blot analysis relative to control; format: functional, organism-based; parameters: scale not given: the % may be the effect or the level left
T1 sequence (O14744 whole entry): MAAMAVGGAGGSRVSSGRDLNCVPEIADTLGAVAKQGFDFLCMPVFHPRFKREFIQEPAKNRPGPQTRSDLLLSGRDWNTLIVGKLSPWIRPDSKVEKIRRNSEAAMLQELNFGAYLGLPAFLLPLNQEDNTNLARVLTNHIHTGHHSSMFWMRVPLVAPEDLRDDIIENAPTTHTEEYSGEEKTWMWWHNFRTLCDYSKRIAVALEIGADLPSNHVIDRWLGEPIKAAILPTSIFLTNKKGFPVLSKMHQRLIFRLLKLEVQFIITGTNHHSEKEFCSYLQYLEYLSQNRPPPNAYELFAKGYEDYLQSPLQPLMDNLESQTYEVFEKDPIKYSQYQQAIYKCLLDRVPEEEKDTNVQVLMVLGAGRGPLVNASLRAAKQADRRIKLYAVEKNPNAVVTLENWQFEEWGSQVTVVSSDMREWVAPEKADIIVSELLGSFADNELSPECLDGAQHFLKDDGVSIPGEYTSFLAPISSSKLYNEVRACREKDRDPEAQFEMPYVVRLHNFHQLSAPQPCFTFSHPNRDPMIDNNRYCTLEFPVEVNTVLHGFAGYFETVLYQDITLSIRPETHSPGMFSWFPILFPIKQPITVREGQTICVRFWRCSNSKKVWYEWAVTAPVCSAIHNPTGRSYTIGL

[7] = test system: DOHH-2; assay: Antiproliferative activity against MTAP null human DOHH-2 cells assessed as inhibition of cell viability measured after 10 days by luminescence based cell titer-glo assay; format: functional; settings: DOHH-2, 240 h
[8] = Volume of distribution at steady state in male Beagle dog at 3 mg/kg, po or 1 mg/kg, iv measured upto 24 hrs; format: ADME, organism-based, Canis lupus familiaris; settings: in vivo
[9] = Antiproliferative activity against MTAP wild type human KURAMOCHI cells assessed as inhibition of cell viability measured after 10 days by luminescence based cell titer-glo assay; format: functional; settings: 240 h
[10] = Antiproliferative activity against MTAP null human HCC15 cells assessed as inhibition of cell viability measured after 10 days by luminescence based cell titer-glo assay; format: functional; settings: HCC15, 240 h
[11] = Oral bioavailability in male Sprague-Dawley rat at 5 mg/kg or 1 mg/kg, iv measured upto 24 hrs; format: ADME, organism-based; settings: in vivo
[12] = test system: Lu-99 cell line; assay: Antiproliferative activity against MTAP null human Lu-99 cell line assessed as inhibition of cell viability measured after 10 days by luminescence based cell titer-glo assay; format: functional; settings: Lu-99, 240 h
[13] = molecular target: T1, Protein arginine N-methyltransferase 5; assay: Inhibition of PRMT5 in MTAP deleted human Lu-99 cell line assessed as increase in p21 level at upto 1000 nM measured after 5 days by Western blot analysis; format: cell-based; settings: time 5.0 day
[14] = molecular target: T1, Protein arginine N-methyltransferase 5; assay: In vivo inhibition of PRMT5 in female BALB/c nude mouse xenografted with human Lu-99 cell line assessed as inhibition of SDMA level at 25 mg/kg administered once daily via oral gavage by Western blot analysis relative to control; format: functional, organism-based; parameters: scale not given: the % may be the effect or the level left
[15] = AUC (0 to 24 hrs) in male Beagle dog at 3 mg/kg, po or 1 mg/kg, iv measured upto 24 hrs; format: ADME, organism-based, Canis lupus familiaris; settings: in vivo
[16] = Antiproliferative activity against MTAP null human NCI-H647 cells assessed as inhibition of cell viability measured after 10 days by luminescence based cell titer-glo assay; format: functional; settings: NCI-H647, 240 h
[17] = molecular target: T1, Protein arginine N-methyltransferase 5; assay: In vivo inhibition of PRMT5 in female BALB/c nude mouse xenografted with human Lu-99 cell line assessed as inhibition of SDMA level administered once daily via oral gavage by Western blot analysis; format: functional, organism-based; settings: dose 25-200 mg/kg
[18] = test system: HCC95; assay: Antiproliferative activity against MTAP wild type human HCC95 cells assessed as inhibition of cell viability measured after 10 days by luminescence based cell titer-glo assay; format: functional; settings: HCC95, 240 h
[19] = test system: Lu-99 cell line; assay: Antitumor activity against human Lu-99 cell line xenografted in female BALB/c nude mouse model assessed as tumor growth inhibition at 200 mg/kg administered once daily via oral gavage and measured upto 21 days by caliper method relative to control; format: functional; parameters: scale not given: the % may be the effect or the level left; settings: time <= 21 day
[20] = molecular target: T1, Protein arginine N-methyltransferase 5; assay: Inhibition of PRMT5 (unknown origin) in presence of MTA
[21] = Toxicity in female BALB/c nude mouse assessed as effect on body weight loss at 25 to 200 mg/kg, po administered once daily for 21 days; format: organism-based; settings: in vivo, 504 h, dose 25-200 mg/kg, time 21 day
[22] = Volume of distribution at steady state in male Sprague-Dawley rat at 5 mg/kg, po or 1 mg/kg, iv measured upto 24 hrs; format: ADME, organism-based; settings: in vivo
[23] = molecular target: T1, Protein arginine N-methyltransferase 5; assay: Inhibition of PRMT5 in MTAP deleted human Lu-99 cell line assessed as decrease pRb (Ser807/811) level at upto 1000 nM measured after 5 days by Western blot analysis; format: cell-based; settings: time 5.0 day
[24] = test system: MDA-MB-436; assay: Antiproliferative activity against MTAP wild type human MDA-MB-436 cells assessed as inhibition of cell viability measured after 10 days by luminescence based cell titer-glo assay; format: functional; settings: MDA-MB-436, 240 h
[25] = test system: HCT-116; assay: Antiproliferative activity against MTAP wild type human HCT-116 cells assessed as inhibition of cell viability by luminescence based cell titer-glo assay; format: functional
[26] = AUC (0 to 24 hrs) in male CD-1 mouse at 5 mg/kg, po or 1 mg/kg, iv measured upto 24 hrs; format: ADME, organism-based; settings: in vivo
[27] = molecular target: T1, Protein arginine N-methyltransferase 5; assay: In vivo inhibition of PRMT5 in female BALB/c nude mouse xenografted with human Lu-99 cell line assessed as inhibition of SDMA level at 200 mg/kg administered once daily via oral gavage by Western blot analysis relative to control; format: functional, organism-based; parameters: scale not given: the % may be the effect or the level left
[28] = molecular target: T1, Protein arginine N-methyltransferase 5; assay: Inhibition of PRMT5 in MTAP deleted human Lu-99 cell line assessed as reduction in SDMA level at upto 1000 nM measured after 5 days by Western blot analysis; format: cell-based; settings: time 5.0 day
[29] = test system: Lu-99 cell line; assay: Antitumor activity against human Lu-99 cell line xenografted in female BALB/c nude mouse model assessed as tumor growth inhibition at 50 mg/kg administered once daily via oral gavage and measured upto 21 days by caliper method relative to control; format: functional; parameters: scale not given: the % may be the effect or the level left; settings: time <= 21 day
[30] = test system: BT-20; assay: Antiproliferative activity against MTAP wild type human BT-20 cells assessed as inhibition of cell viability measured after 10 days by luminescence based cell titer-glo assay; format: functional; settings: BT-20, 240 h
[31] = Cmax in male CD-1 mouse at 5 mg/kg, po or 1 mg/kg, iv measured upto 24 hrs; format: ADME, organism-based; settings: in vivo
[32] = test system: Lu-99 cell line; assay: Antitumor activity against human Lu-99 cell line xenografted in female BALB/c nude mouse model assessed as tumor growth inhibition administered once daily via oral gavage and measured upto 21 days by caliper method; format: functional; settings: dose 25-200 mg/kg, time <= 21.0 day
[33] = Cmax in male Sprague-Dawley rat at 5 mg/kg, po or 1 mg/kg, iv measured upto 24 hrs; format: ADME, organism-based; settings: in vivo
[34] = AUC (0 to 24 hrs) in male Sprague-Dawley rat at 5 mg/kg, po or 1 mg/kg, iv measured upto 24 hrs; format: ADME, organism-based; settings: in vivo
[35] = molecular target: T1, Protein arginine N-methyltransferase 5; assay: Inhibition of PRMT5 (unknown origin)
[36] = molecular target: T1, Protein arginine N-methyltransferase 5; assay: In vivo inhibition of PRMT5 in female BALB/c nude mouse xenografted with human Lu-99 cell line assessed as inhibition of SDMA level at 50 mg/kg administered once daily via oral gavage by Western blot analysis relative to control; format: functional, organism-based; parameters: scale not given: the % may be the effect or the level left
[37] = molecular target: T1, Protein arginine N-methyltransferase 5; assay: Inhibition of PRMT5 in MTAP deleted human Lu-99 cell line assessed as increase in gammaH2AX level at upto 1000 nM measured after 5 days by Western blot analysis; format: cell-based; settings: time 5.0 day
[38] = test system: Lu-99 cell line; assay: Antitumor activity against human Lu-99 cell line xenografted in female BALB/c nude mouse model assessed as tumor growth inhibition at 25 mg/kg administered once daily via oral gavage and measured upto 21 days by caliper method relative to control; format: functional; parameters: scale not given: the % may be the effect or the level left; settings: time <= 21 day
[39] = Oral bioavailability in male Beagle dog at 3 mg/kg or 1 mg/kg, iv measured upto 24 hrs; format: ADME, organism-based, Canis lupus familiaris; settings: in vivo
[40] = test system: Lu-99 cell line; assay: Antitumor activity against human Lu-99 cell line xenografted in female BALB/c nude mouse model assessed as tumor growth inhibition at 100 mg/kg administered once daily via oral gavage and measured upto 21 days by caliper method relative to control; format: functional; parameters: scale not given: the % may be the effect or the level left; settings: time <= 21 day

CN(C(=O)c1ccc2nc(N)c3c(c2c1)COC3)[C@@H]1CCCN(c2ccccc2)C1
IC50 [1]: > 10000 nM

CN(C(=O)c1ccc2nc(N)c3c(c2c1)COC3)[C@@H]1CCN(c2ccccc2)C1
IC50 [1]: 1020 nM

CN(C(=O)c1ccc2nc(N)c3c(c2c1)COC3)[C@H]1CCN(c2ccccc2)C1
IC50 [1]: 2000 nM

CN(C(=O)c1ccc2nc(N)c3c(c2c1)COC3)[C@H]1CCCN(c2ccccc2)C1
IC50 [1]: 6060 nM

Cc1cc(NC(=O)C(=O)N2C[C@@H](C)CC[C@@H]2c2ccc3scnc3c2)cnc1N
Ratio IC50 [2]: 13

CN(C(=O)c1cc2c3c(c(N)nc2cc1F)COC3)[C@@H]1CCN(c2ccc(C#N)cc2)C1
bioavailability [3]: 105%
Cmax [4]: 804 ng/mL
Activity [5]: Non-toxic
Activity [6]: 68%
IC50 [7]: 20.9 nM
Vdss [8]: 1.87 L/kg
IC50 [9]: 2960 nM
IC50 [10]: 6.6 nM
bioavailability [11]: 81%
IC50 [12]: 21.9 nM
inhibition [13]: Active
Activity [14]: 43%
AUC [15]: 6140 ng·h/mL
IC50 [16]: 118 nM
Activity [17]: Dose-dependent-effect
IC50 [18]: 2740 nM
Activity [19]: 102%
IC50 [20]: 4.7 nM
IC50 [1]: 15 nM
Activity [21]: Non-toxic
Vdss [22]: 1.52 L/kg
inhibition [23]: Active
IC50 [24]: 4870 nM
IC50 [25]: 1900 nM
AUC [26]: 6900 ng·h/mL
Activity [27]: 85%
inhibition [28]: Active
Activity [29]: 76%
IC50 [30]: > 10000 nM
Cmax [31]: 1720 ng/mL
Activity [32]: Dose-dependent-effect
Cmax [33]: 1020 ng/mL
AUC [34]: 5610 ng·h/mL
IC50 [35]: 68 nM
Activity [36]: 49%
inhibition [37]: Active
Activity [38]: 71%
bioavailability [39]: 82.5%
Activity [40]: 94%

N#Cc1ccc(N2C[C@@H]3C[C@H]2CN3C(=O)c2ccc3nc(N)c4c(c3c2)COC4)cc1
IC50 [1]: 3170 nM

CN(C(=O)c1ccc2nc(N)c3c(c2c1)COC3)[C@@H]1CCN(c2ccc(C#N)cc2)C1
Ratio IC50 [2]: 82
IC50 [1]: 95 nM
IC50 [25]: 7820 nM

Cc1cc2cc(C(=O)N(Cc3ccc(C(F)(F)F)cn3)C(C)c3ncccn3)ccc2nc1N (centres undefined)
Ratio IC50 [2]: 31

Nc1nc2cnc(C(=O)N3CCOC[C@@H]3c3ccc(C(F)(F)F)cc3)cc2c2c1COC2
Ratio IC50 [2]: 66

CN(C(=O)c1ccc2nc(N)c3c(c2c1)COC3)[C@@H]1CCN(c2ccc3cnn(C)c3c2)C1
IC50 [1]: 313 nM
IC50 [25]: 630 nM

CN(C(=O)c1ccc2nc(N)c3c(c2c1)COC3)[C@@H]1CCN(c2cccc(C#N)c2)C1
IC50 [1]: 317 nM
IC50 [25]: 6620 nM
